Results taken from patent publication US11938115B2, “Benzoselenophene-based compound, pharmaceutical composition containing same, and antibody-drug conjugate” (priority 2020, dated 2024).
Non-standard residues stand in square brackets, D forms with d. Residues, ends and D or L forms follow the SMILES beside them. *: point of attachment. Dolaproine = CO[C@@H]([C@@H]1CCCN1)[C@@H](C)C(=O)O; Dil = CC[C@H](C)[C@H](NC)[C@@H](CC(=O)O)OC; X1 = C[C@@H](N*)[C@@H](O)c1ccccc1; NMeV = CN[C@H](C(=O)O)C(C)C

Tests used:
[1] = system: GBM#2 (Glioblastoma, PDC); test: High-throughput screening, cell viability, GBM#2; type: cell-based; details: seven days after drug treatment
Description: (§1) FIG. 11A, FIG. 11B and FIG. 11C show data confirming the cell viability inhibitory effect of seven types of payloads except Compound 3 (DS-24) on the glioblastoma cell line U87MG, the multiple myeloma cell line KMS11, and the bladder cancer cell line RT112, respectively. Also, FIG. 12A, FIG. 12B, FIG. 12C, FIG. 12D, FIG. 12E and FIG. 12F show data confirming the cell viability inhibitory effect of seven types of payloads except Compound 3 (DS-24) on 6 types of cells derived from a patient with glioblastoma, respectively.
(§2) After treatment with the drug diluted to 14 different concentrations based on 20 μM as the highest concentration, it was verified whether the effect is proportional depending on the drug concentration through the concentration graph for two repeated tests. The cell viability was analyzed seven days after drug treatment to calculate IC50 that inhibits 50% of the cell viability.

[2] = system: GBM#4 (Glioblastoma, PDC); test: High-throughput screening, cell viability, GBM#4; type: cell-based; details: seven days after drug treatment
Description: as §1, §2

[3] = system: multiple myeloma cell line KMS11; test: High-throughput screening, cell viability, KMS11; type: cell-based; details: seven days after drug treatment
Description: as §1, §2

[4] = system: Her2-positive human gastric cancer cells NCI-N87; test: Cell growth inhibition assay (ATPlite), NCI-N87; type: cell-based; set-up: unit not given beside the values; details: 3 days of incubation
Description: (§3) Her2-positive human gastric cancer cells NCI-N87 and human ovarian cancer cells SK-OV3 purchased from the American Type Culture Collection (ATCC; Manassas, VA, USA) were seeded into a 384-well plate at 500 cells per well. After plating for 2 hours, the cells were treated in quadruplicate with toxins in 5-fold and 14-point serial dilution series. After 3 days of incubation at 37° C. in a 5% CO2 humidified incubator, cell viability was checked using an adenosine triphosphate monitoring system based on firefly luciferase (ATPlite™ 1step, PerkinElmer, MA, USA). IC50 values were calculated as an average of four quadruplicated tests (GraphPad Prism 5.0, CA, and USA). FIG. 13A and FIG. 13B are graphs showing the cell viability of NCI-N87 depending on the concentrations of DS-24 and DS-26, respectively, and FIG. 14A and FIG. 14B are graphs showing the cell viability of SK-OV3 depending on the concentrations of DS-24 and DS-26, respectively.

[5] = system: GBM#1 (Glioblastoma, PDC); test: High-throughput screening, cell viability, GBM#1; type: cell-based; details: seven days after drug treatment
Description: as §1, §2

[6] = system: bladder cancer cell line RT112; test: High-throughput screening, cell viability, RT112; type: cell-based; details: seven days after drug treatment
Description: as §1, §2

[7] = system: B16F10 (Murine melanoma Cell line); test: In vivo activity, B16F10 tumor volume; set-up: species or system mouse; details: 5 ug/kg, 50 ug/kg, 100 ug/kg, IV, twice a week
[8] = system: human ovarian cancer cells SK-OV3; test: Cell growth inhibition assay (ATPlite), SK-OV3; type: cell-based; set-up: unit not given beside the values; details: 3 days of incubation
Description: as §3

[9] = system: NCI cell lines; test: In vitro cell line activity, NCI NTP program; type: cell-based
Description: The activity of Compound 3 was checked by requesting a sample to the NCI NTP program.
Based on the results shown in FIG. 6, it was analyzed whether there was any statistical significance in the reactivity depending on cancer types in the cell lines for which the anticancer effect was confirmed by the NCI NTP program.

[10] = system: cell lines and cells derived from a patient with glioblastoma; test: High-throughput screening, comparison of payloads across cell lines and brain tumor patient-derived cells; type: cell-based; details: for cell viability inhibitory effect compared with the other payloads: all cells; for cell viability inhibitory effect on cells derived from a patient with glioblastoma compared to KMS11 and RT112: comparison between cells
Description: as §1, §2

[11] = system: GBM#3 (Glioblastoma, PDC); test: High-throughput screening, cell viability, GBM#3; type: cell-based; details: seven days after drug treatment
Description: as §1, §2

[12] = system: glioblastoma cell line U87MG; test: High-throughput screening, cell viability, U87MG; type: cell-based; details: seven days after drug treatment
Description: as §1, §2

[13] = Hydrophobic interaction chromatography (HIC) analysis; type: physicochemical; details: inferred from HIC, DAR species appear as one

SMILES: COc1ccc2c(O)cc3c(c2c1)[C@H](CCl)CN3C(=O)c1cc2cc(NC(=O)CCN3CCOCC3)ccc2[se]1 [Compound 3, (S)—N-(2-(1-(chloromethyl)-5-hydroxy-8-methoxy-2,3-dihydro-1H-benzo[e]indole-3-carbonyl)benzo[b]selenophen-5-yl)-3-morpholinopropanamide]
- IC50 ([1]; GBM2, 168 h): 0.0264 nM
- IC50 ([2]; 168 h): 0.215 nM
- IC50 ([3]; Homo sapiens, KMS-11, 168 h): 0.0122 nM
- AUC (area under the curve), NCI-N87 [4]: 277
- IC50 ([5]; GBM1, 168 h): 0.98 nM
- IC50 ([6]; Homo sapiens, RT-112, 168 h): 0.00837 nM
- in vivo activity (tumor volume) [7]: in vivo activity even at a very low concentration
- AUC (area under the curve), SK-OV3 [8]: 160
- TGI, sensitivity difference between cancer types ([9]; non-small cell lung cancer, CNS cancer and melanoma compared to leukemia): tumor growth inhibition effect
- activity by cancer type ([9]; non-small lung cancer, CNS cancer, melanoma, renal cancer): remarkably strong activity
- GI50 (Growth Inhibition 50%) ([9]; several cell lines): pM or less
- cell viability inhibitory effect compared with the other payloads [10]: highest cell viability inhibitory effect among the compared materials
- IC50 ([11]; GBM3, 168 h): 0.0313 nM
- IC50 ([12]; Homo sapiens, U-87 MG, 168 h): 0.0339 nM

SMILES: COc1ccc2c(OC(=O)N(CCN(C)C(=O)OCc3ccc(O[C@@H]4O[C@@H](C(=O)O)[C@H](OC(C)=O)[C@@H](OC(C)=O)[C@@H]4OC(C)=O)cc3)Cc3cn(CCOCCOCCOCCNC(=O)CCN4C(=O)C=CC4=O)nn3)cc3c(c2c1)[C@H](CCl)CN3C(=O)c1cc2cc(NC(=O)CCN3CCOCC3)ccc2[se]1 [Compound 3-3, (2R,3R,4R,5S,6S)-3,4,5-triacetoxy-6-(4-((((2-(((((S)-1-(chloromethyl)-8-methoxy-3-(5-(3-morpholinopropanamido)benzo[b]selenophene-2-carbonyl)-2,3-dihydro-1H-benzo[e]indol-5-yl)oxy)carbonyl)((1-(15-(2,5-dioxo-2,5-dihydro-1H-pyrrol-1-yl)-13-oxo-3,6,9-trioxa-12-azapentadecyl)-1H-1,2,3-triazol-4-yl)methyl)amino)ethyl)(methyl)carbamoyl)oxy)methyl)phenoxy)tetrahydro-2H-pyran-2-carboxylic Acid]
- polarity and water solubility [13]: very high polarity and a good water solubility

SMILES: COc1cc2cc(c1Cl)N(C)C(=O)C[C@H](OC(=O)[C@H](C)N(C)C(=O)CCS)[C@]1(C)O[C@H]1[C@H](C)[C@@H]1C[C@@](O)(NC(=O)O1)[C@H](OC)/C=C/C=C(\C)C2 [DM1]
- IC50 [1]: 95.9 nM
- IC50 [2]: 92.1 nM
- IC50 [3]: 0.0441 nM
- IC50 [5]: 133 nM
- IC50 [6]: 0.0431 nM
- cell viability inhibitory effect on cells derived from a patient with glioblastoma compared to KMS11 and RT112 [10]: remarkable decrease in the cell viability inhibitory effect
- IC50 [12]: 13.3 nM

SMILES: COc1cc2cc(c1Cl)N(C)C(=O)C[C@H](OC(=O)[C@H](C)N(C)C(=O)CCC(C)(C)S)[C@]1(C)O[C@H]1[C@H](C)[C@@H]1C[C@@](O)(NC(=O)O1)[C@H](OC)/C=C/C=C(\C)C2 [DM4]
- IC50 [1]: 53.1 nM
- IC50 [2]: 8.15 nM
- IC50 [3]: 0.0229 nM
- IC50 [5]: 29.8 nM
- IC50 [6]: 0.0202 nM
- cell viability inhibitory effect on cells derived from a patient with glioblastoma compared to KMS11 and RT112 [10]: remarkable decrease in the cell viability inhibitory effect
- IC50 [12]: 1.51 nM

SMILES: CC[C@H](C)[C@@H]([C@@H](CC(=O)N1CCC[C@H]1[C@H](OC)[C@@H](C)C(=O)N[C@H](C)[C@@H](O)c1ccccc1)OC)N(C)C(=O)[C@@H](NC(=O)[C@@H](NC)C(C)C)C(C)C [MMAE] (H-[NMeV]V[Dil][Dolaproine]-X1)
- IC50 [1]: 15 nM
- IC50 [2]: 53.3 nM
- IC50 [3]: 0.153 nM
- IC50 [5]: 51.6 nM
- IC50 [6]: 0.259 nM
- cell viability inhibitory effect on cells derived from a patient with glioblastoma compared to KMS11 and RT112 [10]: remarkable decrease in the cell viability inhibitory effect
- IC50 [12]: 3.39 nM

SMILES: CC[C@H](C)[C@@H]([C@@H](CC(=O)N1CCC[C@H]1[C@H](OC)[C@@H](C)C(=O)N[C@@H](Cc1ccccc1)C(=O)O)OC)N(C)C(=O)[C@@H](NC(=O)[C@@H](NC)C(C)C)C(C)C [MMAF] (HELM PEPTIDE1{[meV].V.[CC[C@H](C)[C@@H]([C@@H](CC(=O)[*:2])OC)N(C)[*:1]].[CO[C@H]([C@@H](C)C(=O)[*:2])[C@@H]1CCCN1[*:1]].F}$$$$V2.0)
- IC50 [1]: 1360 nM
- IC50 [2]: 8860 nM
- IC50 [3]: 91.4 nM
- IC50 [5]: 16900 nM
- IC50 [6]: 112 nM
- cell viability inhibitory effect on cells derived from a patient with glioblastoma compared to KMS11 and RT112 [10]: remarkable decrease in the cell viability inhibitory effect
- IC50 [11]: 31100 nM
- IC50 [12]: 353 nM

SMILES: CCc1c2c(nc3ccc(O)cc13)-c1cc3c(c(=O)n1C2)COC(=O)[C@]3(O)CC [SN-38]
- IC50 [1]: 97 nM
- IC50 [2]: 146 nM
- IC50 [3]: 169 nM
- IC50 [5]: 128 nM
- IC50 [6]: 15.6 nM
- cell viability inhibitory effect compared with the other payloads [10]: lower cell viability inhibitory effect than the other payloads
- IC50 [11]: 131 nM
- IC50 [12]: 67.8 nM
